Active and inactive are the calls of the source. The calls are words filed in the database; no cut-off is given here.

Data on 2 compounds can be found in ChEMBL document CHEMBL5463725, “Data for DCP probe BAY-277” (2023).

In assay [1] the target is Mu-type opioid receptor (Homo sapiens) (UniProt P35372). The note with it: Compound concentration 10.0 uM.
The target in assay [2] is Beta-2 adrenergic receptor (Homo sapiens) (UniProt P07550). Kind of assay: Inhibition of Adrenergic beta2 at 10.0 µM in the Eurofins Panlabs Safety Screen. The note with it: Compound concentration 10.0 uM.
Sequence of Beta-2 adrenergic receptor (Homo sapiens) (P07550 whole entry, looked up): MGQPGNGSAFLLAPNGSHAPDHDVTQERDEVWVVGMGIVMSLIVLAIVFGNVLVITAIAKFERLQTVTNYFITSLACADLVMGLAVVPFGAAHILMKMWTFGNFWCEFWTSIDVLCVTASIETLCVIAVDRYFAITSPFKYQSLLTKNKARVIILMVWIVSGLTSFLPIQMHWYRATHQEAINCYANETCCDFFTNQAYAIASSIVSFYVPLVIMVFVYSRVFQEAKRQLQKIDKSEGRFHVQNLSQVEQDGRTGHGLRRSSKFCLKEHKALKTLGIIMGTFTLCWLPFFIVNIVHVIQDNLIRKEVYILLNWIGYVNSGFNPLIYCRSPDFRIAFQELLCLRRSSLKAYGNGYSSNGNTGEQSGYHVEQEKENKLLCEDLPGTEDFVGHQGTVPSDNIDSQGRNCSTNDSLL
For assay [3], the target named is Adenosine receptor A2a (Homo sapiens) (UniProt P29274). Description: Inhibition of Adenosine A2A at 10.0 µM in the Eurofins Panlabs Safety Screen. The note with it: Compound concentration 10.0 uM.
Assay [4] addresses cGMP-inhibited 3',5'-cyclic phosphodiesterase 3A (Homo sapiens) (UniProt Q14432). Kind of assay: Inhibition of Phosphodiesterase PDE3A at 10.0 µM in the Eurofins Panlabs Safety Screen. The note with it: Compound concentration 10.0 uM.
In assay [5] the target is Sodium-dependent dopamine transporter (Homo sapiens, UniProt Q01959). The note with it: Compound concentration 10.0 uM.
Sequence of Sodium-dependent dopamine transporter (Q01959 whole entry): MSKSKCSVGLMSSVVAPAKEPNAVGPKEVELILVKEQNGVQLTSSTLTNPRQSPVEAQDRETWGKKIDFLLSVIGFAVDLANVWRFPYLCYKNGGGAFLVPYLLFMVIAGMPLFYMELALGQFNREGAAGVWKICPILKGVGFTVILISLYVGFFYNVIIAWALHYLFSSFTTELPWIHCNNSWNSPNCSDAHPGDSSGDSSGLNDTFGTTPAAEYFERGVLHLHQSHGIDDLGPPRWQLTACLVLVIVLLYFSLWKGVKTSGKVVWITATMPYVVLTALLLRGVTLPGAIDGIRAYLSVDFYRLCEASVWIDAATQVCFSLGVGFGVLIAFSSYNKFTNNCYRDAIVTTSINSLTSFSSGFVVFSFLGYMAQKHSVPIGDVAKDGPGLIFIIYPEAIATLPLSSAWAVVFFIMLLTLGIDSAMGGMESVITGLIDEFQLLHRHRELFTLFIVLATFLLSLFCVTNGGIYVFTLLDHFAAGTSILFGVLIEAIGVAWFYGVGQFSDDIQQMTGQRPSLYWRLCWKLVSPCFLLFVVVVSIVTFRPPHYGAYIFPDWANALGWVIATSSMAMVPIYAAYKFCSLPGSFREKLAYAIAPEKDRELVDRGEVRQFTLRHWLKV
In assay [6] the target is 5-hydroxytryptamine receptor 2B (Homo sapiens) (UniProt P41595). The note with it: Compound concentration 10.0 uM.
Sequence of 5-hydroxytryptamine receptor 2B (Homo sapiens) (P41595 whole entry): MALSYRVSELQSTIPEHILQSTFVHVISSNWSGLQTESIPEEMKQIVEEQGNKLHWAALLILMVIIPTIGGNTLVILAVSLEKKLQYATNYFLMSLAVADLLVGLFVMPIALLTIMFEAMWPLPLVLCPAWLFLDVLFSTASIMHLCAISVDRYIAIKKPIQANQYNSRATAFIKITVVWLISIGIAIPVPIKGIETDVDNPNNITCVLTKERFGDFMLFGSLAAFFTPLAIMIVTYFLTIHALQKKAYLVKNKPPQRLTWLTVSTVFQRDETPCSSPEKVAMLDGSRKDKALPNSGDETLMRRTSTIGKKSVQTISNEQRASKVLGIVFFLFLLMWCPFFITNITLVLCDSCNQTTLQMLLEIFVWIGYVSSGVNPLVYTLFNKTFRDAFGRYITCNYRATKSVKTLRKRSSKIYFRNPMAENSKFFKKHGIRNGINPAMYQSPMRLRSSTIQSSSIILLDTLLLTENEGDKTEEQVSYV
Assay [7] concerns the target T1, Muscarinic acetylcholine receptor M2 (Homo sapiens, UniProt P08172).
T1 sequence (P08172 whole entry): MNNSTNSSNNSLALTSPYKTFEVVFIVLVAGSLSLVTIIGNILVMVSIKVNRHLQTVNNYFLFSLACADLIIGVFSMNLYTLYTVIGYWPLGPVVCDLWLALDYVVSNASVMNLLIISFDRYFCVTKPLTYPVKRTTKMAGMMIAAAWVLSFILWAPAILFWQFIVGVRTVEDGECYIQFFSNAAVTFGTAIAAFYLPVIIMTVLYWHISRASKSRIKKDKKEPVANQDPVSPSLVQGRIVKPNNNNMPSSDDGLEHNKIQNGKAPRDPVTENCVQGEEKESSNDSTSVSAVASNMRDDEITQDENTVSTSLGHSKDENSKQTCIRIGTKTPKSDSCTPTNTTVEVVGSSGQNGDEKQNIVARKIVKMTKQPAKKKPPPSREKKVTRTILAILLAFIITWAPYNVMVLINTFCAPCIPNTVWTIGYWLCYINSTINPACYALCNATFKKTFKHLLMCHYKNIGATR
Description: GPCRScan assay: inhibition of M2. The arrangement: radioligand conc. used [nm] 0.2 – 1.0, parental cells stable CHO.

Assay [8] concerns the target D(1A) dopamine receptor (Homo sapiens) (UniProt P21728). The following applies: Compound concentration 10.0 uM.
In assay [9] the target is T2, Muscarinic acetylcholine receptor M2 (Homo sapiens) (UniProt P08172).
T2 sequence (whole entry): T1 sequence (P08172 whole entry)
Kind of assay: Inhibition of Muscarinic M2 at 10.0 µM in the Eurofins Panlabs Safety Screen. The note with it: Compound concentration 10.0 uM.

The target of assay [10] is Alpha-1A adrenergic receptor (Homo sapiens) (UniProt P35348). The following applies: Compound concentration 10.0 uM.
Sequence of Alpha-1A adrenergic receptor (Homo sapiens) (P35348 whole entry): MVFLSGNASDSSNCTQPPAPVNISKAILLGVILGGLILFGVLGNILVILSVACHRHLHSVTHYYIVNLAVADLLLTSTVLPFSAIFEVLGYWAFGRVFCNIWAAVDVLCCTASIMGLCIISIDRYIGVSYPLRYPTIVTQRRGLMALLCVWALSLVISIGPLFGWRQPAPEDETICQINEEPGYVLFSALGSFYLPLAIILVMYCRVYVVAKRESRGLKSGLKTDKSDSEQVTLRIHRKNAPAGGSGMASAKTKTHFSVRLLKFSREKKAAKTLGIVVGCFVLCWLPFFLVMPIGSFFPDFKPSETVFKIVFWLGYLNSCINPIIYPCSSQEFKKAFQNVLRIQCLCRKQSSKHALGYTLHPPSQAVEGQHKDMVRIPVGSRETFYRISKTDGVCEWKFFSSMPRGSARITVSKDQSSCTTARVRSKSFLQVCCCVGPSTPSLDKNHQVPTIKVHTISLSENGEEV
Assay [11] has as its target Nitric oxide synthase, inducible (Homo sapiens) (UniProt P35228). Kind of assay: Inhibition of Nitric Oxide Synthetase, Inducible (iNOS) at 10.0 µM in the Eurofins Panlabs Safety Screen. The note with it: Mus musculus; Compound concentration 10.0 uM.
Assay [12] has as its target Sigma intracellular receptor 2 (Homo sapiens, UniProt Q5BJF2). The following applies: Compound concentration 10.0 uM.
The target in assay [13] is T3, Alpha-2A adrenergic receptor (Homo sapiens) (UniProt P08913).
T3 sequence (whole entry): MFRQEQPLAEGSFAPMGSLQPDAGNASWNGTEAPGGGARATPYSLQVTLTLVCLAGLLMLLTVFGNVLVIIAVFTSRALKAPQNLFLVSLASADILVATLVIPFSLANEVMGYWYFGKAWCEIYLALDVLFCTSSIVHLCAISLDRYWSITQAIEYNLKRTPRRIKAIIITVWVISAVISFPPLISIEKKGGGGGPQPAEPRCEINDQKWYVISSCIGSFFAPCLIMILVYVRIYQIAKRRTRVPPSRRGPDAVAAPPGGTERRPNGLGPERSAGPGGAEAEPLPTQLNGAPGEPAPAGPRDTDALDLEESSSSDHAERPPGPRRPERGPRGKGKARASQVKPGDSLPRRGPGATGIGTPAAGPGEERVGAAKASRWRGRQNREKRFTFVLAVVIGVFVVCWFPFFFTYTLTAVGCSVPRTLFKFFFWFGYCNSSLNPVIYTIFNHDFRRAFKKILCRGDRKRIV
The following applies: Compound concentration 10.0 uM.

In assay [14] the target is 5-hydroxytryptamine receptor 5A (Homo sapiens) (UniProt P47898). The following applies: Compound concentration 10.0 uM.
Sequence of 5-hydroxytryptamine receptor 5A (Homo sapiens) (P47898 whole entry): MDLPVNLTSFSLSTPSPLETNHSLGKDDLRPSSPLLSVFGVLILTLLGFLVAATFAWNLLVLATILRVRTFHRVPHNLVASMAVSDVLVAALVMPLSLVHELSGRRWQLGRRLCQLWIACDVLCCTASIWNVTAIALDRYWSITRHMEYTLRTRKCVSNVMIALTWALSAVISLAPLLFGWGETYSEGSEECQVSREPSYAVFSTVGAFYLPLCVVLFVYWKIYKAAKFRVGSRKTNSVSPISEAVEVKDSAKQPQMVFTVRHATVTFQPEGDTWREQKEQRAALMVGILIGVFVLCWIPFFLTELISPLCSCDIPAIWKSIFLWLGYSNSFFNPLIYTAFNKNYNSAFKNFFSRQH
In assay [15] the target is Alpha-1D adrenergic receptor (Homo sapiens) (UniProt P25100). The note with it: Compound concentration 10.0 uM.
Sequence of Alpha-1D adrenergic receptor (Homo sapiens) (P25100 whole entry): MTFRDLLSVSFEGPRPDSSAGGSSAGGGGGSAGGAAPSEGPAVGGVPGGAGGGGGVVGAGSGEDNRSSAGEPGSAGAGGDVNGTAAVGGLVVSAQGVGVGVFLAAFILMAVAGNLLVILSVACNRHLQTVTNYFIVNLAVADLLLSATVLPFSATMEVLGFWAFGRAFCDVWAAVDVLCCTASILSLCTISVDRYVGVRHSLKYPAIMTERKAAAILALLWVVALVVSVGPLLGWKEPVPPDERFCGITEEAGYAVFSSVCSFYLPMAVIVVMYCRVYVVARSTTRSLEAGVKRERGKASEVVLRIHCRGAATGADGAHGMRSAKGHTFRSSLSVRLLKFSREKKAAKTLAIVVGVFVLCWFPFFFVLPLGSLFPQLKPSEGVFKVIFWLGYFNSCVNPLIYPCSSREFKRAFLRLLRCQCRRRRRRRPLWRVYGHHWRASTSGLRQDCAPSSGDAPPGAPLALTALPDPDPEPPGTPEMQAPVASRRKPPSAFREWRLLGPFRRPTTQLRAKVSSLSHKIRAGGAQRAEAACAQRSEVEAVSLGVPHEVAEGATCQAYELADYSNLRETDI
For assay [16], the target named is Methionine aminopeptidase 2 (Homo sapiens, UniProt P50579). Description: Degradation in HT1080 cells (CE) (Capillary electrophoresis (CE)). Type of assay: functional, cell-based. The following applies: ht-1080.
Assay [17] has as its target Mu-type opioid receptor (Homo sapiens) (UniProt P35372). Description: Inhibition of Opiate µ(OP3, MOP) at 10.0 µM in the Eurofins Panlabs Safety Screen. The following applies: Compound concentration 10.0 uM.
The target in assay [18] is D(2) dopamine receptor (Homo sapiens) (UniProt P14416). Description: Inhibition of Dopamine D2L at 10.0 µM in the Eurofins Panlabs Safety Screen. The note with it: Compound concentration 10.0 uM.
Sequence of D(2) dopamine receptor (Homo sapiens) (P14416 whole entry): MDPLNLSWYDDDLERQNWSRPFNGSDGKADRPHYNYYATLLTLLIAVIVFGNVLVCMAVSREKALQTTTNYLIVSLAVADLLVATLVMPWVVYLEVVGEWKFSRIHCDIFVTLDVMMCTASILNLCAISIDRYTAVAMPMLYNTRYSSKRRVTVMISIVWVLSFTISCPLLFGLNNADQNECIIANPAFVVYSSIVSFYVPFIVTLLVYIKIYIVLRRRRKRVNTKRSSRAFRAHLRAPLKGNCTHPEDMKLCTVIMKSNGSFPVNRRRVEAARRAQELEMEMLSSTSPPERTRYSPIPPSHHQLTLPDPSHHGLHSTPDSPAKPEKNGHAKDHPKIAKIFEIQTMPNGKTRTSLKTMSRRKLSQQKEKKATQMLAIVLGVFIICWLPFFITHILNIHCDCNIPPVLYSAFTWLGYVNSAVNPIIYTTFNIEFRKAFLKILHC
For assay [19] the target is unchanged. Kind of assay: Inhibition of Dopamine D2S at 10.0 µM in the Eurofins Panlabs Safety Screen. The note with it: Compound concentration 10.0 uM.
The target in assay [20] is Type-1 angiotensin II receptor (Homo sapiens) (UniProt P30556). Kind of assay: Inhibition of Angiotensin AT1 at 10.0 µM in the Eurofins Panlabs Safety Screen. The note with it: Compound concentration 10.0 uM.
Sequence of Type-1 angiotensin II receptor (Homo sapiens) (P30556 whole entry): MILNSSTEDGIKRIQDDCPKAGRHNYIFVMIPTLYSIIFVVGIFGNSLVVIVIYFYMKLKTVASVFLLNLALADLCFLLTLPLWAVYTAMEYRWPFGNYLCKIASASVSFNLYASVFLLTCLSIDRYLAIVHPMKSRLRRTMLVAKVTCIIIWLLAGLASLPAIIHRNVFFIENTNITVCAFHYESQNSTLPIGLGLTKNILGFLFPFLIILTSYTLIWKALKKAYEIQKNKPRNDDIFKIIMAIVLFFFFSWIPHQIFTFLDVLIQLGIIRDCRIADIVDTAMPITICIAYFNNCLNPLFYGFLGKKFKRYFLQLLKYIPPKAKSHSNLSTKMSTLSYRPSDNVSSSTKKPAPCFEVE
Assay [21] deals with T4, Alpha-2C adrenergic receptor (Homo sapiens) (UniProt P18825).
T4 sequence (whole entry): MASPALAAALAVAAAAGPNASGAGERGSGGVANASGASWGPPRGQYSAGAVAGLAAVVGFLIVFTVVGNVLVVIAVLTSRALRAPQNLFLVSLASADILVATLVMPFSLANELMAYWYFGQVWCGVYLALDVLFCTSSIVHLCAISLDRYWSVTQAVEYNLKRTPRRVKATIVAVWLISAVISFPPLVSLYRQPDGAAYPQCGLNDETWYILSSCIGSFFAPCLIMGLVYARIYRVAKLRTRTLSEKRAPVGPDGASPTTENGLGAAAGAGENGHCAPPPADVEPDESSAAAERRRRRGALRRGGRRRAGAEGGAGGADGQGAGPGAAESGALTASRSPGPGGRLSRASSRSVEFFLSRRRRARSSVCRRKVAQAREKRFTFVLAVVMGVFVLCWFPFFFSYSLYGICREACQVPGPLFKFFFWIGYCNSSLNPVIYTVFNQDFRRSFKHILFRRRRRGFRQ
The note with it: Compound concentration 10.0 uM.

The target of assay [22] is Nitric oxide synthase 1 (Homo sapiens) (UniProt P29475). Kind of assay: Inhibition of Nitric Oxide Synthase, Neuronal (nNOS) at 10.0 µM in the Eurofins Panlabs Safety Screen. The note with it: Rattus norvegicus; Compound concentration 10.0 uM.
The target of assay [23] is Glutamate NMDA receptor (Rattus norvegicus) (UniProt P35439+Q00959+Q00960+Q00961+Q62645+Q8VHN2+Q9R1M7). Description: Inhibition of Glutamate, NMDA, Agonism at 10.0 µM in the Eurofins Panlabs Safety Screen. Type of assay: protein-complex assay. The following applies: Compound concentration 10.0 uM.

Sequence of Sigma intracellular receptor 2 (Q5BJF2 whole entry): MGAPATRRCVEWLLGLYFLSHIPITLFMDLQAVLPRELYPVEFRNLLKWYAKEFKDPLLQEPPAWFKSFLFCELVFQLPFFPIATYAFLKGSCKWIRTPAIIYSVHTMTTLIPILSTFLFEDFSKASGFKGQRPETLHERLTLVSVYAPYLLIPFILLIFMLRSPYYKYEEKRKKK
Sequence of D(1A) dopamine receptor (Homo sapiens) (P21728 whole entry): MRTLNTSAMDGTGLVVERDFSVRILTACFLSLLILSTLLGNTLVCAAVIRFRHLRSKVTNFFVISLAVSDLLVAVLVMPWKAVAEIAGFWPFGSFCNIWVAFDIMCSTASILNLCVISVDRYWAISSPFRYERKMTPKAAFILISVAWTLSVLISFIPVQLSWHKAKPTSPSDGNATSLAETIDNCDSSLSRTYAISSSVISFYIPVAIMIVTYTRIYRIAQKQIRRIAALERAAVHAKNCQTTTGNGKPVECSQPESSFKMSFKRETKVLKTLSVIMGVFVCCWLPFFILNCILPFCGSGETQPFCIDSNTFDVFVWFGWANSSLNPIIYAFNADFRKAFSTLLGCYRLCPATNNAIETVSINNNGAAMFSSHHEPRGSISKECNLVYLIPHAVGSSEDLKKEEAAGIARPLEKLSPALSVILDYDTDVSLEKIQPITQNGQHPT
Sequence of Mu-type opioid receptor (Homo sapiens) (P35372 whole entry): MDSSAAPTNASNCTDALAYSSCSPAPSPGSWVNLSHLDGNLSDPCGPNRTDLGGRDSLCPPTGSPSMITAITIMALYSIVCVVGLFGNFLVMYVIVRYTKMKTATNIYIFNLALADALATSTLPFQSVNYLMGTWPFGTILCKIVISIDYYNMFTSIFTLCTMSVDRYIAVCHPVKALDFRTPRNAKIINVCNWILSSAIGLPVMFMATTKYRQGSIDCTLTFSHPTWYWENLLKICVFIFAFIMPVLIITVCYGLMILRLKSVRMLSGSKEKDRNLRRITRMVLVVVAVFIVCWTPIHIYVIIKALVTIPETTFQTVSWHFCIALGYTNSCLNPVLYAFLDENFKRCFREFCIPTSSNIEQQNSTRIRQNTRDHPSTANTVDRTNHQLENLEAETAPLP

One may read the inhibition as the change of the read-out against control, counted positive when it falls. The DC50 is the midpoint of the concentration-degradation curve. In the case of `O=C1CCC(N2Cc3cc(C4CCN(C(=O)CCCCCN5CCC(c6ccc(Oc7nn8cnnc8c8c7CCCC8)cc6)CC5)CC4)ccc3C2=O)C(=O)N1` (stereo not drawn), the inhibition in [1] is 16.3%; in assay [2], -4%; in assay [3], 6%; in assay [4], 6%; in assay [5], 50.7%; in assay [6] it was 19.9%. The inhibition in assay [8] is 5.21%; in assay [9], 53%; in [10], 12.2%; in [11] it was 0%; in assay [12], 75.9%; in assay [13] it was 33.1%. The inhibition in [14] is 10.1%; in [15], 19.8%; in assay [17] it was 19%; in [18], 22%; in assay [19] it was -8%; in assay [20] it was -4%. In addition, the figures for the inhibition in [21], in assay [22] and in assay [23] were 47.9%, 9% and 21%, respectively. The Ki in [7] (read-out: Ki) is 677 nM; in assay [7] (read-out: pKi (converted)) it was 676 nM. In assay [16], the DC50 was 8.93 nM (active).

Consider `O=C1NCCCC1N1Cc2cc(C3CCN(C(=O)CCCCCN4CCC(c5ccc(Oc6nn7cnnc7c7c6CCCC7)cc5)CC4)CC3)ccc2C1=O` (stereo not drawn), for which the inhibition in assay [1] is 13.8%; in assay [2] it was 13%; in assay [3], 6%; in assay [4], 6%; in assay [5] it was 51.4%; in assay [6], -7.97%. The inhibition in assay [8] is 8.56%; in assay [9], 47%; in [10], -1.93%; in [11], -3%; in [12], 76.4%; in assay [13], 29.3%. Moreover, the inhibition is 14% in assay [14]; 8.76% in assay [15]; 16% in [17]; 22% in assay [18]; 13% in [19]; 2% in [20]. Moreover, the inhibition is 27.5% in [21], -4% in [22] and 0% in [23]. Also, the values for the Ki in [7] (read-out: Ki) and in assay [7] (read-out: pKi (converted)) were 1070 nM and 1050 nM, respectively. The DC50 in [16] was > 1000 nM (not active).
